Results taken from patent US5885789A, “Solution-based assay for peroxidatively-active substances in bodily fluids” (STC Technologies Incorporated, priority 1997, dated 1999).

Assay: Calibration of the Working Reagent at 660 nm (aqueous hemoglobin solutions)
Format: biochemical
Conditions: 2 minutes, 37° C.
Description: To prepare the solution-based assay composition, 14 mL of stock reagent B was poured into 1 mL of stock reagent A and mixed gently for 1-2 minutes by stirring. The combined A/B reagent was poured into 1 L of stock reagent C and mixed gently by stirring for approximately 30 minutes and allowed to stand at room temperature overnight prior to use. This prepared a working solution-based assay composition to be used as a working reagent.
A solution-based assay composition prepared according to Example 1 was used to calibrate its detectable color change having an absorbance at about 660 nm. Aqueous solutions of hemoglobin were prepared in the concentrations of 0.055, 0.060, 0.065, 0.068, 0.070, and 0.075 mg/dL. Twenty-one replicates of each hemoglobin solution were run using the following procedure.
The solution-based assay composition (or working reagent) and the hemoglobin solutions were equilibrated at room temperature before use. A 15 microliter sample of a hemoglobin solution and 250 microliters of the working reagent were transferred to the sample wheel of a Cobas-Bio autoanalyzer which was equilibrated at 37° C. The sample and the working reagent were mixed by rotation of the sample wheel. After the sample and working reagent were allowed to react for 2 minutes, the absorbance of the resulting solution was measured at 660 nm. The calibration curve shown in FIG. 1 was generated by plotting absorbance versus concentration data shown in Table 1 below and using standard regression analysis. This calibration curve can then be used to quantitatively assay the amount of hemoglobin in a bodily fluid.

HEMOGLOBIN
ABSORBANCE, 660 nm (hemoglobin 0.055 mg/dL, 15 microliter sample + 250 microliters working reagent): 0.1139 | ABSORBANCE, 660 nm (hemoglobin 0.06 mg/dL): 0.1319 | ABSORBANCE, 660 nm (hemoglobin 0.065 mg/dL): 0.1474 | ABSORBANCE, 660 nm (hemoglobin 0.0675 mg/dL): 0.1557 | ABSORBANCE, 660 nm (hemoglobin 0.070 mg/dL): 0.1719 | ABSORBANCE, 660 nm (hemoglobin 0.075 mg/dL): 0.1877
